Test results as given in ChEMBL document CHEMBL6103537 (J Med Chem, 2025).
The source made the active and inactive calls. The rule behind the calls is not given here.

Legend:
[1] = target: T1, Protein cereblon/Signal transducer and activator of transcription 6 (Homo sapiens, UniProt P42226+Q96SW2); assay: PROTAC activity at STAT6/CRBN in human MV4-11 cells assessed as reduction in STAT6 level incubated for 12 hrs by Western blot analysis; format: cell-based
Target sequence in this assay (P42226 whole entry): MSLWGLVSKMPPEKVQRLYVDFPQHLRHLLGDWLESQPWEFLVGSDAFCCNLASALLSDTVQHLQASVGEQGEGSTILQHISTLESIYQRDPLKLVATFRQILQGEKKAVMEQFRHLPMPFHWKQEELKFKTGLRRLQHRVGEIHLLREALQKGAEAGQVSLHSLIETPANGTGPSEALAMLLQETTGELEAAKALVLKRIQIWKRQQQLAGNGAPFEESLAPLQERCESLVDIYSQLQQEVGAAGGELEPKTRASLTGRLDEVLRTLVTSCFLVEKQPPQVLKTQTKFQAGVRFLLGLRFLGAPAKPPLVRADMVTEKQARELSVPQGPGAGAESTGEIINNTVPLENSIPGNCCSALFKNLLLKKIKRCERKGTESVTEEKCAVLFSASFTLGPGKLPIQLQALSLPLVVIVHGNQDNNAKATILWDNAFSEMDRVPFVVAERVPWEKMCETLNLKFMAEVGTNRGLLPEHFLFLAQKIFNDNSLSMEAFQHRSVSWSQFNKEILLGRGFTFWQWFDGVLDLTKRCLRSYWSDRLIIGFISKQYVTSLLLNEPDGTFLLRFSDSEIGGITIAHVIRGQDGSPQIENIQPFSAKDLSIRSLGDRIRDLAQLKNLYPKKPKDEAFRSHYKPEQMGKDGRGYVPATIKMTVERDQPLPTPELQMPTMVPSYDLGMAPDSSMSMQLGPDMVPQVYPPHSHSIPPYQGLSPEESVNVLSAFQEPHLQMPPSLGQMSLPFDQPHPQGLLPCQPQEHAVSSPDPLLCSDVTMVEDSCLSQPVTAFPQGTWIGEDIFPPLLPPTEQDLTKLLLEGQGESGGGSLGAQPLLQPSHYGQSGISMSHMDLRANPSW
Target sequence in this assay (Q96SW2 whole entry): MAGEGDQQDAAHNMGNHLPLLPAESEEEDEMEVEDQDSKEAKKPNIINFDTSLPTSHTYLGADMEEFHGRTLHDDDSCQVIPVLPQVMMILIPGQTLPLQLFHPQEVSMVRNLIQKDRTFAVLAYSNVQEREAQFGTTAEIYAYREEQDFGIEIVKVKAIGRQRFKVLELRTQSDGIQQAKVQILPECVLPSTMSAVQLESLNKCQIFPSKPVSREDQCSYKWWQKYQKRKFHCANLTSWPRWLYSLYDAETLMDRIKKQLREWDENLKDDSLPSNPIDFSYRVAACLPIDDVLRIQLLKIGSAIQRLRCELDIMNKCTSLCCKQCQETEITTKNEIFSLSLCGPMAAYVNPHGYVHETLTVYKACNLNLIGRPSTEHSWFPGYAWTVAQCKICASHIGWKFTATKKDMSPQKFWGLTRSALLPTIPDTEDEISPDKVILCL

[2] = target: Protein cereblon/Signal transducer and activator of transcription 2 (Homo sapiens) (UniProt Q96SW2+P52630); assay: PROTAC activity at STAT2/CRBN in human MV4-11 cells assessed as reduction in STAT2 level at 2 uM incubated for 12 hrs by Western blot analysis relative to control; format: cell-based
[3] = target: T1, Protein cereblon/Signal transducer and activator of transcription 6; assay: PROTAC activity at STAT6/CRBN in human PBMC cells assessed as reduction in STAT6 level incubated for 18 hrs by Western blot analysis; format: cell-based
Target sequence in this assay (P42226 whole entry): as the sequence (P42226 whole entry) above
Target sequence in this assay (Q96SW2 whole entry): as the sequence (Q96SW2 whole entry) above

[4] = target: Protein cereblon/Signal transducer and activator of transcription 5A/Signal transducer and activator of transcription 5B (Homo sapiens) (UniProt P42229+P51692+Q96SW2); assay: PROTAC activity at STAT5/CRBN in human PBMC cells assessed as reduction in STAT5 level at 10 uM incubated for 18 hrs by Western blot analysis relative to control; format: cell-based
[5] = target: Protein cereblon/Signal transducer and activator of transcription 3 (Homo sapiens) (UniProt P40763+Q96SW2); assay: PROTAC activity at STAT3/CRBN in human PBMC cells assessed as reduction in STAT3 level at 10 uM incubated for 18 hrs by Western blot analysis relative to control; format: cell-based
Protein cereblon/Signal transducer and activator of transcription 3 (Homo sapiens), sequence (P40763 2-770 limits assumed): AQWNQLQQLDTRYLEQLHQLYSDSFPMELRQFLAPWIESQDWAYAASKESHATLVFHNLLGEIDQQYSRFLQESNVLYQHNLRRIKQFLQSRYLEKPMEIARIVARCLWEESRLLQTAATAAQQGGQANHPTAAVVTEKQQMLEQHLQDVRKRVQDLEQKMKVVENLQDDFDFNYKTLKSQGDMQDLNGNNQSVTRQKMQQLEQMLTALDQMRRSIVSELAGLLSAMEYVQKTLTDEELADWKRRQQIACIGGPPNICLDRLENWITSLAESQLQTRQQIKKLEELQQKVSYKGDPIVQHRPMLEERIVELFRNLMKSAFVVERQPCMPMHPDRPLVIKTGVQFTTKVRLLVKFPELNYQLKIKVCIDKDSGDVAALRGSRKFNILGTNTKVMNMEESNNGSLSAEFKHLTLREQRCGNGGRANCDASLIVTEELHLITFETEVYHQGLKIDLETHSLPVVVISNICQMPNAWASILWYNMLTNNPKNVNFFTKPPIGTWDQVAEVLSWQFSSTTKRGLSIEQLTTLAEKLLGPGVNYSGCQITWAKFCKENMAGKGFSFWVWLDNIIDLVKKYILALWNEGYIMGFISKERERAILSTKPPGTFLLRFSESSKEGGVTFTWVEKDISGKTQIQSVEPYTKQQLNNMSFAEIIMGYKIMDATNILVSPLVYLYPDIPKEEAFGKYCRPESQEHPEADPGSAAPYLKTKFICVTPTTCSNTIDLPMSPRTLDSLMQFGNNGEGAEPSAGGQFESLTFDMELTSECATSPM
Protein cereblon/Signal transducer and activator of transcription 3 (Homo sapiens), sequence (Q96SW2 whole entry partner): as the sequence (Q96SW2 whole entry) above

[6] = target: T1, Protein cereblon/Signal transducer and activator of transcription 6; assay: PROTAC activity at STAT6/CRBN in human L-1236 cells assessed as reduction in STAT6 level incubated for 24 hrs by Western blot analysis; format: cell-based; settings: dose 10.0 µM
Target sequence in this assay (P42226 2-847 limits assumed): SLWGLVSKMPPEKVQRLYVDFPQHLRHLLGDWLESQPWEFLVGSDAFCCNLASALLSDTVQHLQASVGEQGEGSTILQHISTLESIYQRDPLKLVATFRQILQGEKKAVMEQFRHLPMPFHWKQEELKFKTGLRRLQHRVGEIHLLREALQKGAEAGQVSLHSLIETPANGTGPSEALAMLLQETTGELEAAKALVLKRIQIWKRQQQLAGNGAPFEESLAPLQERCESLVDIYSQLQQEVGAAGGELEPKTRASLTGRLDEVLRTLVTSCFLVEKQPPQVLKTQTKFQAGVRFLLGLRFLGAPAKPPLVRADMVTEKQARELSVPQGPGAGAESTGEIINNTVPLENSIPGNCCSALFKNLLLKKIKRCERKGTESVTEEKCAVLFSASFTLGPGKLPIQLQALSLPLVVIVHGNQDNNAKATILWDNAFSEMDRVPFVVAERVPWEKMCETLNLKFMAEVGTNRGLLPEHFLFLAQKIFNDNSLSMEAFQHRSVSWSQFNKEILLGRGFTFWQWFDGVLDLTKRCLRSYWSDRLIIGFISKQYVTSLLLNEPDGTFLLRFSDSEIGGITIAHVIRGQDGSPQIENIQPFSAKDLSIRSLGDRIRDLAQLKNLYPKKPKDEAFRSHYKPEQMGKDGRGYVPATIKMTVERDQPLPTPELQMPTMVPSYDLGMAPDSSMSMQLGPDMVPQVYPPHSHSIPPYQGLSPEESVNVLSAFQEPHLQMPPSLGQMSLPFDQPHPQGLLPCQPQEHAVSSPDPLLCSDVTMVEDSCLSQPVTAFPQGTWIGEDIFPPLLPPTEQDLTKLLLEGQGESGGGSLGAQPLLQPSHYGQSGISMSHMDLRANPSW
Target sequence in this assay (Q96SW2 whole entry partner): as the sequence (Q96SW2 whole entry) above

[7] = target: Protein cereblon/Signal transducer and activator of transcription 1-alpha/beta (Homo sapiens) (UniProt P42224+Q96SW2); assay: PROTAC activity at STAT1/CRBN in human L-1236 cells assessed as reduction in STAT1 level at 10 uM incubated for 24 hrs by Western blot analysis; format: cell-based
[8] = Downregulation of KRT1 level in human PBMC cells at 5 uM incubated for 18 hrs by Western blot analysis relative to control; format: functional
[9] = tested on: PBMC; assay: Downregulation of STAT1 level in human PBMC cells at 5 uM incubated for 18 hrs by Western blot analysis relative to control; format: functional, cell-based
[10] = tested on: PBMC; assay: Downregulation of STAT2 level in human PBMC cells at 5 uM incubated for 18 hrs by Western blot analysis relative to control; format: functional, cell-based
[11] = target: T1, Protein cereblon/Signal transducer and activator of transcription 6; assay: PROTAC activity at STAT6/CRBN in human MV4-11 cells assessed as reduction in STAT6 level at 2 uM measured upto 1200 mins in presence of lenalidomide by HiBiT bioluminescence assay; format: cell-based; settings: Jurkat
Target sequence in this assay (P42226 2-847 limits assumed): as the sequence (P42226 2-847 limits assumed) above
Target sequence in this assay (Q96SW2 whole entry partner): as the sequence (Q96SW2 whole entry) above

[12] = target: T1, Protein cereblon/Signal transducer and activator of transcription 6; assay: PROTAC activity at STAT6/CRBN in human MV4-11 cells assessed as reduction in STAT6 level at 2 uM measured upto 1200 mins in presence of […] by HiBiT bioluminescence assay; format: cell-based
Target sequence in this assay (P42226 2-847 limits assumed): as the sequence (P42226 2-847 limits assumed) above
Target sequence in this assay (Q96SW2 whole entry partner): as the sequence (Q96SW2 whole entry) above

[13] = target: Protein cereblon/Zinc finger protein Helios (Homo sapiens) (UniProt Q96SW2+Q9UKS7); assay: PROTAC activity at CRBN/IKZF2 in human Jurkat cells assessed as degradation of IKZF2 protein at 0.01 to 10 uM incubated for 20 hrs by Western blotting analysis; format: cell-based; settings: dose 0.01-10 µM
Protein cereblon/Zinc finger protein Helios (Homo sapiens), sequence (Q96SW2 whole entry, looked up): as the sequence (Q96SW2 whole entry) above
Protein cereblon/Zinc finger protein Helios (Homo sapiens), sequence (Q9UKS7 whole entry, looked up): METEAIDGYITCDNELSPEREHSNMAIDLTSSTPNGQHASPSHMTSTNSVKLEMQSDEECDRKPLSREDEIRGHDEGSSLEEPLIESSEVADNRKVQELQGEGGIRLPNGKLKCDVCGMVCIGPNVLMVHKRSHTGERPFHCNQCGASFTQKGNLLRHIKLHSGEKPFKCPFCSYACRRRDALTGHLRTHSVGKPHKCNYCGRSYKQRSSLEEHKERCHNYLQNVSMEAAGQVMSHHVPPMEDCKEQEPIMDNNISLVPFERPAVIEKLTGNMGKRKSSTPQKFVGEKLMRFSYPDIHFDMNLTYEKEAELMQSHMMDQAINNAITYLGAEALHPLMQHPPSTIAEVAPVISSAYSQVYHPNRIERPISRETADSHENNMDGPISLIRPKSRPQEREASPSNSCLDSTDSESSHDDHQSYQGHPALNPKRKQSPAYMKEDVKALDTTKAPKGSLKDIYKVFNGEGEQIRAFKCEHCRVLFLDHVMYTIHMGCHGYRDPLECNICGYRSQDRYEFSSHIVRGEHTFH

[14] = target: Protein cereblon/Eukaryotic peptide chain release factor GTP-binding subunit ERF3A (Homo sapiens) (UniProt Q96SW2+P15170); assay: PROTAC activity at CRBN/GSPT1 in human Jurkat cells assessed as degradation of GSPT1 protein at 0.01 to 10 uM incubated for 20 hrs by Western blotting analysis; format: cell-based; settings: dose 0.01-10 µM
Protein cereblon/Eukaryotic peptide chain release factor GTP-binding subunit ERF3A (Homo sapiens), sequence (P15170 whole entry, looked up): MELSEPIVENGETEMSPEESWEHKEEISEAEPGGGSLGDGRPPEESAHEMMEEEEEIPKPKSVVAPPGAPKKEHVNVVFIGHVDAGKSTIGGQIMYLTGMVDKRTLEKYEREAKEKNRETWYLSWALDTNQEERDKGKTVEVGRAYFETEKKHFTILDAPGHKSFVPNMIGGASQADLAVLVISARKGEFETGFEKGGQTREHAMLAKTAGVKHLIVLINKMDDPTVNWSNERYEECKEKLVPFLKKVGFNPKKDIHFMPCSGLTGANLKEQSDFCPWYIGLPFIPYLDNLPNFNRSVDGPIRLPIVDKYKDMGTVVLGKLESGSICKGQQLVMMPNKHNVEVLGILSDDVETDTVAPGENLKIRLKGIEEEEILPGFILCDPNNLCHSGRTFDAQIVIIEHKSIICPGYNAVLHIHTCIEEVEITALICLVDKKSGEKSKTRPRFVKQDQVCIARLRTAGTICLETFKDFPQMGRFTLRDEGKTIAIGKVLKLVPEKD
Protein cereblon/Eukaryotic peptide chain release factor GTP-binding subunit ERF3A (Homo sapiens), sequence (Q96SW2 whole entry, looked up): as the sequence (Q96SW2 whole entry) above

[15] = Metabolic stability in human liver microsome assessed as parent compound remaining measured at 5 mins in presence of NADPH by LC-MS/MS analysis; format: ADME; settings: liver microsomes, read-out: Stability
[16] = Metabolic stability in human liver microsome assessed as parent compound remaining measured at 15 mins in presence of NADPH by LC-MS/MS analysis; format: ADME; settings: liver microsomes, read-out: Stability
[17] = Metabolic stability in dog liver microsome assessed as parent compound remaining measured at 15 mins in presence of NADPH by LC-MS/MS analysis; format: ADME, Canis lupus familiaris; settings: liver microsomes, read-out: Stability
[18] = Metabolic stability in dog liver microsome assessed as parent compound remaining measured at 30 mins in presence of NADPH by LC-MS/MS analysis; format: ADME, Canis lupus familiaris; settings: liver microsomes, read-out: Stability
[19] = Metabolic stability in monkey liver microsome assessed as parent compound remaining measured at 45 mins in presence of NADPH by LC-MS/MS analysis; format: ADME, Macaca mulatta; settings: rhesus monkey, liver microsomes, read-out: Stability
[20] = Metabolic stability in rat liver microsome assessed as parent compound remaining measured at 5 mins in presence of NADPH by LC-MS/MS analysis; format: ADME; settings: liver microsomes, read-out: Stability
[21] = Metabolic stability in rat liver microsome assessed as parent compound remaining measured at 30 mins in presence of NADPH by LC-MS/MS analysis; format: ADME; settings: liver microsomes, read-out: Stability
[22] = Metabolic stability in mouse liver microsome assessed as parent compound remaining measured at 5 mins in presence of NADPH by LC-MS/MS analysis; format: ADME; settings: liver microsomes, read-out: Stability
[23] = Metabolic stability in mouse liver microsome assessed as parent compound remaining measured at 15 mins in presence of NADPH by LC-MS/MS analysis; format: ADME; settings: liver microsomes, read-out: Stability
[24] = Metabolic stability in mouse liver microsome assessed as parent compound remaining measured at 45 mins in presence of NADPH by LC-MS/MS analysis; format: ADME; settings: liver microsomes, read-out: Stability
[25] = Metabolic stability in human liver microsome assessed as half life measured upto 60 mins in presence of NADPH by LC-MS/MS analysis; format: ADME; settings: liver microsomes
[26] = Metabolic stability in dog liver microsome assessed as half life measured upto 60 mins in presence of NADPH by LC-MS/MS analysis; format: ADME, Canis lupus familiaris; settings: liver microsomes
[27] = Metabolic stability in mouse liver microsome assessed as half life measured upto 60 mins in presence of NADPH by LC-MS/MS analysis; format: ADME; settings: liver microsomes
[28] = Stability in human plasma assessed as parent compound remaining measured at 15 mins by LC-MS/MS analysis; format: ADME, cell-free; settings: read-out: Stability
[29] = Stability in human plasma assessed as parent compound remaining measured at 30 mins by LC-MS/MS analysis; format: ADME, cell-free; settings: read-out: Stability
[30] = Stability in dog plasma assessed as parent compound remaining measured at 15 mins by LC-MS/MS analysis; format: ADME, cell-free, Canis lupus familiaris; settings: read-out: Stability
[31] = Stability in dog plasma assessed as parent compound remaining measured at 30 mins by LC-MS/MS analysis; format: ADME, cell-free, Canis lupus familiaris; settings: read-out: Stability
[32] = Stability in monkey plasma assessed as parent compound remaining measured at 15 mins by LC-MS/MS analysis; format: ADME, cell-free, Macaca mulatta; settings: rhesus monkey, read-out: Stability
[33] = Stability in human plasma assessed as half life measured upto 60 mins by LC-MS/MS analysis; format: ADME, cell-free
[34] = target: Protein cereblon/Signal transducer and transcription activator 6 (Mus musculus) (UniProt P52633+Q8C7D2); assay: In vivo PROTAC activity at STAT6/CRBN in BALB/c mouse assessed as reduction in STAT6 level in lung at 200 mg/kg, ip measured at 24 hrs by Western blot analysis; format: functional, organism-based; design: scale not given: the % may be the effect or the level left

DC50 [1]: 0.001 µM
Emax [2]: < 40%
DC50 [3]: 0.08 µM
Activity [4]: No effect
Activity [5]: No effect
Activity [6]: Dose-dependent-effect
Activity [7]: No effect
Activity [11]: Active
Activity [12]: Active
Activity [13]: No effect
Activity [14]: No effect
remaining at 5 min [15]: 94%
remaining at 0.25 h [16]: 98%
remaining at 0.25 h [17]: 97%
remaining at 0.5 h [18]: 95%
remaining at 0.75 h [19]: 61%
remaining at 5 min [20]: 99%
remaining at 0.5 h [21]: 96%
remaining at 5 min [22]: 98%
remaining at 0.25 h [23]: 98%
remaining at 0.75 h [24]: 92%
half-life [25]: > 2 h
half-life [26]: > 2 h
half-life [27]: > 2 h
remaining at 0.25 h [28]: 94%
remaining at 0.5 h [29]: 82%
remaining at 0.25 h [30]: 87%
remaining at 0.5 h [31]: 75%
remaining at 0.25 h [32]: 111%
half-life [33]: > 2 h
Activity [34]: > 70%
Structure (SMILES): CC(C)(C)[C@H](NC(=O)c1cc2cc(C(F)(F)P(=O)(O)O)ccc2s1)C(=O)N1C[C@@H](OCCCCCC#Cc2cccc3c2CN(C2CCC(=O)NC2=O)C3=O)C[C@H]1C(=O)N1CCO[C@H](c2ccccc2)C1 (some centres undefined)
Activity [8]: 59%
Activity [9]: inactive
Activity [10]: inactive
